Test results reported in patent US20050202511A1, “AMP-activated protein kinase (AMPK) inhibitor screening assay” (priority 2002, published 2005).

Columns and labels:
[1] = target: T1, AMPK-γ2 CBS3-4 construct (Homo sapiens, UniProt Q9UGJ0); assay: Displacement of AMP by AMP-S (competitive binding assay)
T1 construct: the C-terminal pair (CBS3-4, residues 430-556); made in house; host or cells: E. coli BL21 (DE3), vector pGEX-KG
Protocol: (§1) Various concentrations of [^14C]-AMP, [γ^32P] […] Reactions were stopped by spotting 10 ìl onto a Millipore MF Filter Membrane disc and rapidly washing under high vacuum with 1 ml of ice-cold TBS. Radioactivity was determined on the filters by scintillation counting. Non-specific binding (which was trivial) was determined by performing the assay with GST as a control, and was subtracted. […] Data were fitted to the binding models given in the text, using GraphPad Prism 3. Estimates of parameters resulting from fits are quoted in the text and Table 1±standard error, and the curves shown in figures are theoretical curves obtained using those estimates.

[2] = tested on: AMPK; assay: Activation of AMPK (data not shown); format: biochemical; conditions: read-out: concentration giving half-maximal activation
[3] = target: cystathionine â-synthase D444N mutant (Homo sapiens, UniProt P35520, D444N); conditions: concentrations of SAM up to 300 μM; cited from earlier work
[4] = target: wild type cystathionine â-synthase (Homo sapiens, UniProt P35520); conditions: read-out: half-maximal effect (activation); cited from earlier work
[5] = target: T2, cystathionine â-synthase CBS1-2 (WT) (Homo sapiens, UniProt P35520); assay: Filter binding assay, GST-CBS domain fusion; conditions: single-site model
T2 construct: 416-551 of cystathionine â-synthase; made in house; host or cells: E. coli BL21 (DE3)
Excerpt: (§2) Finally, DNA encoding the C-terminal CBS domain pair from the enzyme cystathionine â-synthase was cloned and expressed.
(§3) For IMPDH2, DNAs encoding residues 112-232 or the full-length protein (1-514) were amplified using human liver cDNA (Clontech) as template, and cloned into pHAT20 (Clontech) using 5′-AgeI and 3′-KpnI sites added to the primers. For the other constructs, DNAs encoding residues 582-840 of CLC2, or 416-551 of cystathionine â-synthase, were amplified using human liver cDNA as template, and cloned into pGEX-KG as above using 5′-BamHI and 3′-XhoI sites added to the primers. All mutations were created using the Stratagene QuikChange Site-directed Mutagenesis system.
as §1

[6] = target: T3, cystathionine â-synthase CBS domain pair D444N (Homo sapiens, UniProt P35520, D444N); assay: Filter binding assay, GST-CBS domain fusion
T3 construct: 416-551 of cystathionine â-synthase; made in house; host or cells: E. coli BL21 (DE3)
Excerpt: as §2, §3, §1

T1 sequence (Q9UGJ0 430-556): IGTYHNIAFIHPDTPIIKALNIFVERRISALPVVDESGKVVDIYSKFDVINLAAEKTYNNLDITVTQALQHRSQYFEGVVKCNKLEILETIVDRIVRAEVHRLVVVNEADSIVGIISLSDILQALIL

Row | Compound | Kd fold lower than the Kd of CBS3-4 for AMP [1] [fold] | Kd ([1]; read-out: Kd from single site competitive binding model) [µM] | EC50 [2] [µM] | activation [3] | EC50 [4] [µM] | Kd [5] [µM] | increase in Kd relative to wild type [6] [fold] | Kd ([6]; single-site model) [µM]
1 | Nc1ncnc2c1ncn2[C@@H]1O[C@H](COP(O)(O)=S)[C@@H](O)[C@H]1O [AMP-S, adenosine 5′-O-monothiophosphate] | 2 | 48 ± 12 | 3.1 |  |  |  |  | 
2 | C[S+](CC[C@H](N)C(=O)O)C[C@H]1O[C@@H](n2cnc3c(N)ncnc32)[C@H](O)[C@@H]1O (some centres unmarked) [S-adenosyl methionine] |  |  |  | not significantly activated | ~20 | 34 | 15 | 510 ± 70
